We go through 1 substance from paper PMC12595484, “Optimizing multifunctional fluorescent ligands for intracellular labeling” (Proceedings of the National Academy of Sciences of the …, 2025).

The subject of test [1] is sfGFP–BRD4 in Neuro2a cells expressing coilin–HaloTag. Nature of the test: BRD4 translocation to coilin–HaloTag, LLSM. In kind it is cell-based. As to conditions: Neuro2a cells, LLSM, 90 min. As to the method: The ability of JQ1 ligands to enter living cells and recruit BRD4 to defined genomic regions was evaluated using lattice light sheet fluorescence microscopy (LLSM). Neuro2a cells were transiently transfected with plasmids encoding three fusion proteins: i) HaloTag protein fused to coilin, […]; ii) superfolder GFP–BRD4; and iii) histone H2B–mCherry as a nuclear marker. The Cajal body component coilin localizes in distinct puncta in the nucleus ([62]) compared to the diffuse euchromatic distribution of BRD4. […]
Neuro2a cell culture, labeling, lattice light sheet microscopy (LLSM), and confocal microscopy. […]
Full 3D volumes at multiple stage positions were collected at 2 minute intervals for 90 minutes total. […] The recruitment of histone H3.3 was assessed by imaging after 24 h incubation with 19HTL. […]
LLSM imaging processing. Raw image data volumes were deskewed and rotated, then empirically deconvolved using a Richardson-Lucy maximum likelihood algorithm using experimentally measured PSFs for each color channel for 30 iterations. […] These segmentation masks were then used to isolate each nucleus for further quantitative analyses. […] The amount of BRD4 signal was then assessed in- versus outside HaloTag labeled domains throughout the 90-min time-lapse acquisition. […]

In test [2] the test system is sfGFP–BRD4 in Neuro2a cells expressing HP1a–HaloTag. The test is described as follows: BRD4 translocation to HP1a–HaloTag, LLSM. Type of test: cell-based. As to conditions: 90 min. From the text: Given its lower fluorescence background and more efficacious recruitment of BRD4, we focused on (S)-JQ1–JF635–HaloTag ligand (19HTL) for subsequent experiments. To test the generality of 19HTL in recruiting BRD4, we imaged cells expressing heterochromatin protein 1a (HP1a) fused to HaloTag (Fig. 7A). HP1a is localized within constitutive heterochromatin as its N-terminal chromodomain binds to methylated histone H3 ([65]).
(2HTL) and JF608-HaloTag ligand (3HTL) reached a fluorescence plateau, and they were chosen as saturating counter stains or “chase” dyes for examining the labeling efficiency of biotin-JF-HaloTag ligands (13HTL–16HTL). Next, we developed an in-gel assay to independently quantitate labeling efficiencies of 13HTL–16HTL. […] Bands representing HaloTag ligand were quantified by densitometry using […]
labeling efficiency calculations, bands representing saturating chase dye fluorescence (e.g., JF549) were compared to saturating primary dye fluorescence allowing estimation of the amount of […]
Where F is the fraction of HaloTag protein labeled, Ce is the experimental chase dye fluorescence signal after incubation with pulse biotin-JF-HaloTag ligand, and Cs is the saturating chase dye fluorescence without incubation with a pulse ligand. […]

Regarding (R)-JQ1–JF635–HaloTag ligand [20HTL], the “BRD4 recruitment to coilin–HaloTag sites” value in test [1] was “no GFP–BRD4 recruitment”. Moreover, the “BRD4 translocation to HP1a–HaloTag” value in test [2] is reported as “no GFP–BRD4 recruitment”.
